Results on one compound are retold here after patent US7527935B2, “G-protein coupled receptor having eicosanoid as ligand and gene thereof” (Mitsubishi Tanabe Pharma Corporation, priority 2002, dated 2009).

Test [1] concerns the target T1, fusion protein of TG1019 protein and Giα1 (351Cys→Ile) (Homo sapiens, UniProt P63096+Q8TDS5, C351I/D111G/K206E/T295A).
T1 construct: made in house; host or cells: Sf9 insect cells (baculovirus, pVL1392), membrane fraction
Put plainly: [35S]GTPγS binding to membrane fraction containing TG1019-Giα1 (351Cys→Ile) fusion protein (ligand identification). It is filed as biochemical. The following applies: membrane fraction with TG1019-Giα1 (351Cys→Ile) fusion protein. The source says:
(§1) As stated in Example 1, it is concluded that TG1019 protein is a G-protein coupled receptor. Therefore, using a membrane fraction containing fused protein of TG1019 and G-protein, a ligand is identified as follows, according to a method for detecting a ligand-dependent binding with GTPγS (guanosine 5′-O-(3-thiotriphosphate)) [Wenzel-Seifert, et al., Mol. Pharmacom., Vol. 58, pp. 954-966, 2000; Bahia, et al., Biochemistry, Vol. 37, pp. 11555-11562, 1998].
Sf9 cells were inoculated onto a 10 cm Petri dish coated with collagen to about 70% confluence, and added thereto were Virus solution III (100 μl) obtained above and 12 ml of a culture medium, and the mixture was cultured at 27° C. for 4 days. The obtained cells were washed with a cooled PBS (Phosphate buffered saline, pH 7.4), and suspended in 3.6 ml of a cooled solution buffer [20 mM Tris-HCl, pH 7.5, 1 mM EDTA, 0.2 mM phenylmethylsulfonyl fluoride, 10 μg/ml pepstatin, 10 μg/ml leupeptin, and 2 μg/ml aprotinin], and the cells were homogenized by means of a Teflon homogenizer. This cell homogenate was centrifuged (600×g, 10 minutes), and the resultant supernatant was further centrifuged (50,000×g, 20 minutes). The obtained sediments were suspended in 450 μl of a cooled reaction buffer [20 mM Tris-HCl, pH 7.5, 50 mM sodium chloride, 10 mM magnesium chloride] by means of a Teflon homogenizer, to prepare a membrane fraction containing a fusion protein.
The membrane fraction (450 μl) obtained above (2) was suspended in a reaction buffer (7.54 ml), and added thereto was GDP (10 mM, 10 μl). To 160 μl of this solution was added 20 μl of a test compound. After incubating the mixture at 30° C. for 10 minutes, 20 μl of [^35S] GTPγS (5 nM, 5 nCi/μl: available from Amersham Pharmacia Biotech) was added to start reaction. After incubating the mixture at 30° C. for one hour, the reaction was terminated by filtration through a glass filter (UniFilter-96GF/B, available from Packard). The filter was washed with 200 μl of a cooled reaction buffer for 3 times, and an amount of the [^35S] GTPγS (a binding amount to the membrane fraction) on the filter was measured by liquid scintillation counting. From the thus measured [^35S] GTPγS binding amount was subtracted a nonspecific binding amount (a binding amount measured in the presence of 10 μM GTPγS), to obtain a specific binding amount of [^35S ] GTPγS.
On the technique in general: Binding of GTPγS marks nucleotide exchange on a G protein.

For test [2], the target named is T2, fusion protein of TG1019 protein and Gqα (Homo sapiens, UniProt Q8TDS5, D111G/K206E/T295A).
T2 construct: made in house; host or cells: Sf9 insect cells (baculovirus, pVL1392), membrane fraction
T2 sequence (Q8TDS5 with tags, fused parts or gaps D111G/K206E/T295A): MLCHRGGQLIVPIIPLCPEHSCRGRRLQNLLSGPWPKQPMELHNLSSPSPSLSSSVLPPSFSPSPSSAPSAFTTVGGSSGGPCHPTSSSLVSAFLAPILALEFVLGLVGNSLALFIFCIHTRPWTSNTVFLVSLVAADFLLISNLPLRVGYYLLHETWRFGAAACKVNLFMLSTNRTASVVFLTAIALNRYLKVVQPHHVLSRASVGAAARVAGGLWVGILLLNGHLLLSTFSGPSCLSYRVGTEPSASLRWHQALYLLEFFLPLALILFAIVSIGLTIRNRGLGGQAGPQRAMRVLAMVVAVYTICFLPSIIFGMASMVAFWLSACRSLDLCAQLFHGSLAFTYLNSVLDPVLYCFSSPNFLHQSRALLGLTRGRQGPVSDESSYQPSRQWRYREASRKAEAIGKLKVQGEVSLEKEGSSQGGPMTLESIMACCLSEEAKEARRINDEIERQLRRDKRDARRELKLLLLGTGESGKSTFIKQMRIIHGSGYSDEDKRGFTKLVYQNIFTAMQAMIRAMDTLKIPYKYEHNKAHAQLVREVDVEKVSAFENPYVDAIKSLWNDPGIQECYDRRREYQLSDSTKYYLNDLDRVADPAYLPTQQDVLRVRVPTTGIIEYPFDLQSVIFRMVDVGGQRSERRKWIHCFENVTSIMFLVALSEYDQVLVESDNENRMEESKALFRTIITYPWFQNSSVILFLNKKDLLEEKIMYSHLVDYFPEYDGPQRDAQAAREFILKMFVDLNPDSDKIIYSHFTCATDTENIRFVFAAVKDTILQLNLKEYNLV
Description: [35S]GTPγS binding to membrane fraction containing TG1019-Gqα fusion protein. The test is classed as biochemical. The following applies: membrane fraction with TG1019-Gqα fusion protein; increase small compared to Giα.
Text: as §1
Sf9 cells were inoculated onto a 10 cm Petri dish coated with collagen to about 70% confluence, and added thereto were Virus solution III (100 μl) obtained above and 12 ml of a culture medium, and the mixture was cultured at 27° C. for 4 days. […]
The membrane fraction (450 μl) obtained above (2) was suspended in a reaction buffer (7.54 ml), and added thereto was GDP (10 mM, 10 μl). […] GTPγS (a binding amount to the membrane fraction) on the filter was measured by liquid scintillation counting. From the thus measured [^35S] GTPγS binding amount was subtracted a nonspecific binding amount (a binding amount measured in the presence of 10 μM GTPγS), to obtain a specific binding amount of [^35S ] […]

The test system of test [3] is TG1019 (5-oxo-ETE receptor). Put plainly: Intracellular calcium level in CHO cells stably expressing TG1019. The test is classed as cell-based, human. The following applies: FuraII 340/380 nm ratio. As to the method: (1) Preparation of cells stably expressing TG1019 Cells stably expressing TG1019 (the receptor protein of the present invention) and cells not expressing TG1019 were prepared by introducing to CHO cells the TG1019 protein expression vector prepared in Example 5 and the control vector, as described below.
The cells stably expressing TG1019 prepared in the above section (1) was incubated in DMEM/F12 medium supplemented with 10% fetal bovine serum at 37° C. in a CO2 incubator. To the cells which were 80 to 90% confluent, was added a cell dissociation buffer (Cell Dissociation Buffer Enzyme-free PBS-based, available from Invitrogen), and cells were dissociated by incubating at 37° C. for 5 minutes. […]
The cells after loading were centrifuged once with an assay buffer, to remove supernatant, and then, they were suspended in an assay buffer to have a concentration of 3.7 to 6.3×10^6 cells/ml. This cell suspension was portioned into a 96 well plate by 80 μl/well, and the plate was set in a fluorescence measuring device (FDSS6000, [Hamamatsu Photonics]), and the reaction was started by adding a solution containing 5-oxo-ETE or 5-HETE in a 5 fold concentration dissolved in an assay buffer, by 20 μl/well. The measurement was done by measuring fluorescence intensity at 510 nm, with excitation wavelength of 340 nm and 380 nm.
For orientation: A change in cytosolic calcium serves as a functional read-out for many receptors and channels.

T1 sequence (Q8TDS5+P63096 fused Q8TDS5:D111G/Q8TDS5:K206E/Q8TDS5:T295A/P63096:C351I): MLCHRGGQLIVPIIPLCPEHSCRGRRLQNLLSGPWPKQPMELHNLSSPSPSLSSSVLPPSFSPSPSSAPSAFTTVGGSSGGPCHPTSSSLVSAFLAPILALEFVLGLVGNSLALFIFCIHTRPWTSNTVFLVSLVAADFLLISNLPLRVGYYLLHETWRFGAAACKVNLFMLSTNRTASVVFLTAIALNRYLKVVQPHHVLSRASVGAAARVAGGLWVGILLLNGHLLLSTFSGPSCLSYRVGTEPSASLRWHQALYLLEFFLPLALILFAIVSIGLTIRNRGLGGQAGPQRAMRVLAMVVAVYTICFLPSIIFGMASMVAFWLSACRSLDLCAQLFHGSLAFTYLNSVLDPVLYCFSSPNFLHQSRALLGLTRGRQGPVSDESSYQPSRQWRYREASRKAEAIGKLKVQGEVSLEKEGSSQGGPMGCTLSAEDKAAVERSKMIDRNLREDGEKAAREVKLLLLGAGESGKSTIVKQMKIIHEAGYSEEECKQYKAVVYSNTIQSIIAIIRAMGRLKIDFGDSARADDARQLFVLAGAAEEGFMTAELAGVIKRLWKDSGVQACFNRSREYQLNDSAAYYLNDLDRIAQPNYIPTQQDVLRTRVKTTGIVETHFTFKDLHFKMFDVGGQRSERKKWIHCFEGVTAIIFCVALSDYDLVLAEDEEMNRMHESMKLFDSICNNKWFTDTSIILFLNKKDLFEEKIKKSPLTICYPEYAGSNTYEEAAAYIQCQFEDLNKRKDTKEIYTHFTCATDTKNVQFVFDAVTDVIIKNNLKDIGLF

As for `CCCCC/C=C\C/C=C\C/C=C\C=C\C(=O)CCCC(=O)O` [5-oxo-ETE, 5-oxo-6E,8Z,11Z,14Z-eicosatetraenoic acid], the figures for the “specific binding amount of [35S]GTPγS” value in test [1] and in test [2] were “increased in a concentration-dependent manner” and “increased”, respectively. Also, the “change in intracellular calcium level” value in test [3] is recorded as “increase in intracellular calcium level”.
